Experimental data reported in patent US20050227915A1, “Methods and reagents for treating neurodegenerative diseases and motor deficit disorders” (priority 2001, published 2005).
“Also recorded” adds a separate entry of the source. Like-named read-outs stand apart in the source and are kept apart here.

What was measured:
deacetylase = conditions: cited from earlier work
flies expressing Q48 = assay: Pseudopupil analysis of rhabdomeres in flies expressing Q48 polyglutamine peptides; format: in vivo, Drosophila; conditions: for progressive photoreceptor neuron degeneration: feeding initiated only in adult flies; for distribution of rhabdomeres by day 6: Q48 flies fed inhibitor, data not shown; for neurodegenerative effect of Q48 (photographs of ommatidia): in vivo
Source text: (§1) Drosophila stocks and crosses. Expression of polyglutamine-containing peptides is driven by the bipartite expression system activator sequence (UAS)-GAL4 in transgenic flies (Marsh, J. L. et al. (2000) Hum. Mol. Gen. 9, 13-25).
(§2) Injection of plasmids expressing Httex1p with 20 or 93 glutamines produced nine and ten lines, respectively. Two lines with the most severe neuronal phenotype (P463 and P465) were chosen for the experiments described herein. Polyglutamine stocks are w;P(w^+mC=UAS-Q93httexon1)^4F1 and w;P(w^+mC=UAS-Q48+myc/flag)^20. Constructs under the control of a yeast UAS were crossed to flies expressing the yeast GAL4 transcriptional activator (Brand, A. and Perrimon, N., supra) driven by the neuron-specific promoter elav (chromosome 2 driver for Q48 lines, Luo, L. et al. (1994) Genes Dev. 8, 1787-1802, and X-chromosome driver for Htt exon 1 lines, Lin, D. M. & Goodman, C. S. (1994) Neuron 13, 507-523) that is expressed in all neurons from embryogenesis onwards: w;P(w^+mC;w+; elav-GAL4)/CyO, P(w^+mC=Act-GFP)JMR1CyO actin-GFP or w;P(w^+mW.hs=GawB)elavC155.
For testing the effect of Sin3A on polyglutamine phenotypes, we crossed w;P(w^+mC=UAS-Q93httexon1)^4F1 virgins to w;P{w^+mCwPw;elav-GAL4)/Y;Sin3A^08269/Bc Gla males.
Pseudopupil analysis and transgene expression. Pseudopupil analysis allows visualization of the arrangement of rhabdomeres in the ommatidia of the compound eye (Franceschini, N. (1972) in Information processing in the visual systems of arthropods, ed. Wehner, R., pp 75-82). Adult flies were decapitated, one eye was dipped in a drop of nail polish and the head was mounted on a microscope slide. Eyes were analyzed with a Nikon EFD-3/Optiphot-2 scope using a 50× objective, and photographed with a Spot camera. At least 200 ommatidia were scored for each condition. For Western analysis of transgene expression, 20 larvae from each sample were ground in a buffer containing 0.1 M phosphate at pH7.1, 0.3 M sucrose, 0.02 mM phenylthiourea, protease cocktail and 0.1 mM PMSF, and 200 μg of total lysate were loaded per lane.

[1] = tested on: flies expressing Httex1p Q93; assay: Pseudopupil analysis of rhabdomeres in flies expressing Httex1p Q93; format: in vivo, Drosophila
Source text: as §1
as §2, with “w;P(w^+mW.hs=GawB)elavC155. […]” for “w;P(w^+mW.hs=GawB)elavC155.”
Pseudopupil analysis and transgene expression. […] Eyes were analyzed with a Nikon EFD-3/Optiphot-2 scope using a 50× objective, and photographed with a Spot camera. At least 200 ommatidia were scored for each condition. […]

[2] = tested on: PC12 cells induced to express Httex1p (103QP); assay: Histone acetylation analysis in PC12 cell extract (Western blot); format: cell-based; conditions: PC12 F103QP-EGFP cells, uninduced and induced, 5 mM sodium butyrate for last 24 h
Description: Histone acetylation analysis in PC12 cell extract. PC12 cells, stably transfected with ecdysone-inducible (Invitrogen) F103QP-EGFP were plated, induced with 5 μM ponasterone (Invitrogen) for 48 h, and treated for the last 24 h with 5 mM sodium butyrate. Controls included uninduced and/or non-butyrate-treated cells. Cells were lysed in 1×HAT buffer with 50 mM NaCl, 0.3% NP-40, and a protease-inhibitor cocktail on ice for 10 min. A 50 μg aliquot of whole cell extract was analyzed by Western blot.
Separate, independently-derived, ecdysone-inducible PC12 cell lines, denoted PC12/pBWN:Htt ex1Q103-EGFP cells and PC12/pWN:Httex1Q25-EGFP (E. S. Schweitzer, UCLA), were also analyzed. These clonal cells contain a modified exon 1 of Htt inserted into an expression vector containing the Bombyx ecdysone-regulated element (described in Suhr, S. T., et al. (1998) Proc. Natl. Acad. Sci. U.S.A. 95, 7999-8004).
Twenty-five micrograms of whole cell extracts from PC12 cells stably transfected with plasmids encoding inducible 25QP-EGFP and 103QP-EGFP was analyzed for […]. Control cells (uninduced) and cells induced with 1 μM tebufenizide for 12 h were analyzed by Western blots. Anti-acetylated histone H4, anti-histone H3 and anti-acetylated histone H3 (all from Upstate Biotechnology) were used to determine levels of acetylated histones H3 and H4 relative to levels of total H3.

[3] = Description: Drug Formulation. […] This solution was administered to mice in place of drinking water and replaced weekly.
Animals. Affected mice were hemizygous R6/2 females (Mangiarini, L., et al. (1996) Cell 87: 493-506) (available from the Induced Mutant Resource, Jackson Laboratory, Bar Harbor Me., code B6CBA-TgN (HDexon1)62), bred and reared in our colony by backcrossing R6/2 males to C57BL/6×CBA F1 females. Transgenic animals were identified prior to weaning by PCR of tail-tip DNA and CAG repeat size was determined (Mangiarini, L., et al. (1997) Nat Genet 15: 197-200). Control mice were wild-type female littermates. Mice were weaned into their treatment groups at 4 weeks of age. […] From age 12 weeks, all animals were additionally given mash consisting of powdered chow mixed with the drug solution as given in the drinking bottle. The mice were subject to a 12 hour light (08:00-20:00), 12 hour dark (20:00-08:00) cycle. Living conditions and baseline characteristics of study groupings were standardized as previously described (Hockly et al. submitted).
Assuming that a 20 g mouse drinks 3 ml/day, this corresponds to a dose of 1.33 g/l.
Drug administration commenced at 30 days of age after an initial testing week, which was used to assort the mice into well-matched treatment groups (FIG. 28a).

R6/2 mice = assay: Rotarod analysis of motor impairment; format: in vivo
Description: (§3) Animals. […] Control mice were wild-type female littermates.
(§4) Behavioral analysis: Rotarod impairment was assessed on a Ugo Basile 7650 accelerating Rotarod (Linton Instrumentation, UK), modified as previously described (Hockly et al, submitted). Animals (R6/2: n=13, wild-type: n=12 per treatment group) were tested at 4 weeks of age to establish their baseline performance and then at 8, 10 and 12 weeks of age. Grip strength was measured once per fortnight (Hockly et al. submitted) and animals weighed weekly to the nearest 0.1 g. Statistical analysis of grip strength used ANOVA on the mean grip strength. Rotarod data were analyzed at each time point using repeated measures in a linear mixed effects model (in S-plus).

[4] = tested on: huntingtin aggregate load; assay: Organotypic hippocampal slice culture assay of polyQ aggregation; format: cell-based, R6/2 mice
Description: The present inventors established that HOP-[…]-CD has no effect on polyQ aggregation over a 5-log concentration range (data not shown) and therefore the HOP-[…]-CD concentration required to complex 250 μM was used as the vehicle. The medium was changed twice weekly and slices were fixed at weekly intervals from 2 weeks in culture. The huntingtin aggregate load was assessed by quantitative indirect immunofluorescence and results were analyzed using the general linear model ANOVA with false discovery rate correction (Hochberg, Y. & Benjamini, Y. (1990) Stat Med 9: 811-8).
We have developed this technique to bridge the gap between wholly in vitro aggregation assays and preclinical trials and allow us to quantify aggregate formation in a system in which aggregates form at the same rate and in the same sequence as they do in vivo.

[5] = Body weight in SAHA preclinical trial; format: in vivo, mice
Description: as §3, §4

Compound: O=C(CCCCCN1C(=O)c2cccc3cccc(c23)C1=O)NO [scriptaid, Scriptaid]
- Effective Inhibitory Concentration Range (deacetylase): nM-μM

Compound: O=C(O)CCCc1ccccc1 [phenylbutyrate, Phenylbutyrate]
- Effective Inhibitory Concentration Range (deacetylase): mM

Compound: C/C=C1\NC(=O)[C@H]2CSSCC/C=C/[C@H](CC(=O)N[C@H](C(C)C)C(=O)N2)OC(=O)[C@H](C(C)C)NC1=O [depsipeptide, Depsipeptide]
- Effective Inhibitory Concentration Range (deacetylase): nM-μM

Compound: Oxamflatin
- Effective Inhibitory Concentration Range (deacetylase): μM

Compound: Nc1ccccc1NC(=O)c1ccc(CNC(=O)OCc2cccnc2)cc1 [benzamide (MS-27-275), MS-275]
- Effective Inhibitory Concentration Range (deacetylase): μM

Compound: CCCC(=O)O [butyrate, Butyric acid]
- Effective Inhibitory Concentration Range (deacetylase): mM
- progressive photoreceptor neuron degeneration (flies expressing Q48; 100 mM butyrate): still prevented; also recorded: arrested
- distribution of rhabdomeres by day 6 (flies expressing Q48): same distribution of rhadomeres by day 6 as 1-day-old flies
- neurodegenerative effect of Q48 (photographs of ommatidia) (flies expressing Q48): disrupts the neurodegenerative effect of Q48
- number of rhabdomeres per ommatidium at 6 days after eclosion ([1]; flies fed 100 mM butyrate): markedly improved
- level of degeneration (loss of rhabdomeres) ([1]; larvae reared on inhibitor-containing food): reduces the level of degeneration observed
- levels of histone H4 acetylation [2]: can be reversed by butyrate treatment
- levels of histone H4 acetylation ([2]; listed as sodium butyrate): increased

Compound: O=C(CCCCCCC(=O)NO)NO [suberic bis-hydroxamic acid]
- Effective Inhibitory Concentration Range (deacetylase): nM-μM

Compound: CN(C)c1ccc(C(=O)NCCCCCCCC(=O)NO)cc1 [DBCH, dimethylaminobenzamidylcaprylic hydroxamate]
- Effective Inhibitory Concentration Range (deacetylase): nM-μM

Compound: O=C(/C=C/c1cccc(C(=O)NO)c1)NO [m-carboxy cinnamic acid bis-hydroxamic acid]
- Effective Inhibitory Concentration Range (deacetylase): nM-μM

Compound: O=C(CCCCCCC(=O)Nc1ccccc1)NO [SAHA, Suberoylanilide hydroxamic acid]
- effective concentration (deacetylase): ~2.5 µM
- deaths before termination of the experiments at 13 weeks ([3]; 0.67 g/l, R6/2 and wild-type): no R6/2 mice or wild-type mice died
- OUTCOME ([3]; 1.33 g/1, WT and R6/2, oral, 3 weeks): no adverse symptoms
- mice that died at around 6 weeks of age ([3]; 1.33 g/l from 30 days of age, R6/2): 2/13
- weight less than mice on the corresponding placebo ([3]; 1.33 g/l from 30 days of age, after 2 weeks, wild-type and R6/2, data not shown): more than 20%
- mice that died at around 6 weeks of age ([3]; 1.33 g/l from 30 days of age, wild-type): 2/12
- OUTCOME ([3]; DE to 2 g/1, R6/2, oral, 1 week): weight loss and one mouse (out of 4) died within one week
- OUTCOME ([3]; DE to 2.67 g/1+, WT, oral, 3 weeks): dramatic weight loss
- toxicity ([3]; administration initiated at 30 days, doses […]1.33 g/l, wild-type and R6/2): toxic
- progressive photoreceptor neuron degeneration (flies expressing Q48; 2 μM SAHA): still prevented; also recorded: arrested
- distribution of rhabdomeres by day 6 (flies expressing Q48): same distribution of rhadomeres by day 6 as 1-day-old flies
- neurodegenerative effect of Q48 (photographs of ommatidia) (flies expressing Q48): disrupts the neurodegenerative effect of Q48
- Rotarod performance / motor impairment versus placebo (R6/2 mice; R6/2, 0.67 g/l SAHA in HOP-[…]-CD in drinking water): strong and consistent improvement; also recorded: dramatically improves Rotarod performance; also recorded: highly significant improvement; also recorded: dramatically improve the motor impairment
- Rotarod latency to fall (R6/2 mice; R6/2, 0.67 g/l SAHA, 8 weeks of age): 207 s
- Rotarod latency to fall (R6/2 mice; R6/2, 0.67 g/l SAHA, 10 weeks of age): 187 s
- Rotarod latency to fall (R6/2 mice; R6/2, 0.67 g/l SAHA, 12 weeks of age): 144 s
- delay in the decline in Rotarod performance (R6/2 mice; R6/2, 0.67 g/l SAHA, 12 weeks versus placebo at 8 weeks): delay by as much as one month
- Rotarod performance versus placebo (R6/2 mice; wild-type mice, 0.67 g/l SAHA): no significant difference
- aggregate load versus vehicle control ([4]; 0.025 μM, 0.25 μM or 2.5 μM SAHA in HOP-[…]-CD, 3 and 4 weeks): no difference; also recorded: no effect
- toxicity to slice cultures ([4]; 25 μM and 250 μM): toxic
- failure of R6/2 mice to gain weight ([5]; R6/2, 0.67 g/l SAHA): did not prevent; also recorded: did not ameliorate
- weight deficit compared to appropriate placebo group ([5]; both wild-type and R6/2, 13 weeks, 0.67 g/l SAHA): ~18%
- weight gain compared to littermates on placebo ([5]; wild-type and R6/2, 0.67 g/l SAHA): failed to gain weight to the same extent; also recorded: failing to gain weight at the same rate as placebo-treated mice

Compound: O=C(CCCCCCC(=O)Nc1cccnc1)NO [pyroxamide]
- Effective Inhibitory Concentration Range (deacetylase): nM-μM

Compound: C=C[C@@H](O)[C@@H]1O[C@H]1/C=C/[C@@H]1O[C@H]1[C@@H](C)O [depudecin, Depudecin]
- Effective Inhibitory Concentration Range (deacetylase): μM
